Laboratory results as given in patent publication US10167262B2, “Herbicidal substituted 3-arylpyrazoles” (FMC CORPORATION, priority 2014, dated 2019).
Where two headings read alike, the source gives them in different places.

How the values were obtained:
Assay in all cases: Test C pre-/postemergence greenhouse test, plant response rating 0-100
Format in all cases: in vivo
corn (Zea mays) = details: Zea mays; for Corn plant response rating (crop injury, 0 = no effect, 100 = complete kill) at 250 g/ha: 250 g ai/ha; for Corn plant response rating (crop injury, 0 = no effect, 100 = complete kill) at 500 g/ha: 500 g ai/ha
Method in brief: (§1)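 Greenhouse test. Preemergence: seed in loam:sand, sprayed with formulated chemical (solvent + surfactant). Postemergence: 1–4 leaf plants, 2–18 cm, peat-based potting medium. Hold 13–15 d; score visually, 0 (none) to 100 (complete control); dash = not tested.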

[1] = tested on: blackgrass (Alopecurus myosuroides); details: Alopecurus myosuroides; for pest or weed control at 62 g/ha: 62 g ai/ha; for pest or weed control at 125 g/ha: 125 g ai/ha; for pest or weed control at 250 g/ha: 250 g ai/ha; for pest or weed control at 500 g/ha: 500 g ai/ha
Method in brief: as §1

[2] = tested on: velvetleaf (Abutilon theophrasti); details: Abutilon theophrasti; for pest or weed control at 62 g/ha: 62 g ai/ha; for pest or weed control at 125 g/ha: 125 g ai/ha; for pest or weed control at 250 g/ha: 250 g ai/ha; for pest or weed control at 500 g/ha: 500 g ai/ha
Method in brief: as §1

[3] = tested on: large (Lg) crabgrass (Digitaria sanguinalis); details: Digitaria sanguinalis; for pest or weed control at 62 g/ha: 62 g ai/ha; for pest or weed control at 125 g/ha: 125 g ai/ha; for pest or weed control at 250 g/ha: 250 g ai/ha; for pest or weed control at 500 g/ha: 500 g ai/ha
Method in brief: as §1

[4] = tested on: yellow nutsedge (Cyperus esculentus); details: Cyperus; for pest or weed control at 62 g/ha: 62 g ai/ha; for pest or weed control at 125 g/ha: 125 g ai/ha; for pest or weed control at 250 g/ha: 250 g ai/ha; for pest or weed control at 500 g/ha: 500 g ai/ha
Method in brief: as §1

[5] = tested on: Italian ryegrass (Lolium multiflorum); details: Lolium multiflorum; for pest or weed control at 62 g/ha: 62 g ai/ha; for pest or weed control at 125 g/ha: 125 g ai/ha; for pest or weed control at 250 g/ha: 250 g ai/ha; for pest or weed control at 500 g/ha: 500 g ai/ha
Method in brief: as §1

[6] = tested on: ragweed (common ragweed, Ambrosia elatior); details: Ambrosia artemisiifolia; for pest or weed control at 62 g/ha: 62 g ai/ha; for pest or weed control at 125 g/ha: 125 g ai/ha; for pest or weed control at 250 g/ha: 250 g ai/ha; for pest or weed control at 500 g/ha: 500 g ai/ha
Method in brief: as §1

[7] = tested on: lambsquarters (Chenopodium album); details: Chenopodium album; for pest or weed control at 62 g/ha: 62 g ai/ha; for pest or weed control at 125 g/ha: 125 g ai/ha; for pest or weed control at 250 g/ha: 250 g ai/ha; for pest or weed control at 500 g/ha: 500 g ai/ha
Method in brief: as §1

[8] = tested on: pigweed (Amaranthus retroflexus); details: Amaranthus retroflexus; for pest or weed control at 62 g/ha: 62 g ai/ha; for pest or weed control at 125 g/ha: 125 g ai/ha; for pest or weed control at 250 g/ha: 250 g ai/ha; for pest or weed control at 500 g/ha: 500 g ai/ha
Method in brief: as §1

[9] = tested on: morningglory (Ipomoea coccinea); details: Ipomoea; for pest or weed control at 62 g/ha: 62 g ai/ha; for pest or weed control at 125 g/ha: 125 g ai/ha; for pest or weed control at 250 g/ha: 250 g ai/ha; for pest or weed control at 500 g/ha: 500 g ai/ha
Method in brief: as §1

[10] = tested on: galium (catchweed bedstraw, Galium aparine); details: Galium; for pest or weed control at 62 g/ha: 62 g ai/ha; for pest or weed control at 125 g/ha: 125 g ai/ha; for pest or weed control at 250 g/ha: 250 g ai/ha; for pest or weed control at 500 g/ha: 500 g ai/ha
Method in brief: as §1

soybean (Glycine max) = details: Glycine max; for plant injury at 62 g/ha: 62 g ai/ha; for plant injury at 125 g/ha: 125 g ai/ha; for plant injury at 250 g/ha: 250 g ai/ha; for plant injury at 500 g/ha: 500 g ai/ha
Method in brief: as §1

[11] = post-emergence, Postemergence, scale 0 to 100
[12] = pre-emergence, Preemergence, read-out: Plant response rating, Blackgrass
[13] = post-emergence, Postemergence, read-out: Plant response rating (0 to 100), Velvetleaf
[14] = pre-emergence, Preemergence, read-out: Plant response rating, Velvetleaf
[15] = post-emergence, Postemergence, read-out: Plant response rating (0 to 100), Crabgrass, Large
[16] = pre-emergence, Preemergence, read-out: Plant response rating, Crabgrass, Large
[17] = post-emergence, Postemergence, read-out: Plant response rating (0 to 100), Nutsedge, Yellow
[18] = pre-emergence, Preemergence, read-out: Plant response rating, Nutsedge, Yellow
[19] = post-emergence, Postemergence, read-out: Plant response rating (0 to 100), Ryegrass, Italian
[20] = pre-emergence, Preemergence, read-out: Plant response rating, Ryegrass, Italian
[21] = post-emergence, Postemergence, read-out: Plant response rating (0 to 100), Ragweed
[22] = pre-emergence, Preemergence, read-out: Plant response rating, Ragweed
[23] = post-emergence, Postemergence, read-out: Plant response rating (0 to 100), Lambsquarters
[24] = pre-emergence, Preemergence, read-out: Plant response rating, Lambsquarters
[25] = post-emergence, Postemergence, read-out: Plant response rating (0 to 100), Pigweed
[26] = pre-emergence, Preemergence, read-out: Plant response rating, Pigweed
[27] = post-emergence, Postemergence, read-out: Plant response rating (0 to 100), Morningglory
[28] = pre-emergence, Preemergence, read-out: Plant response rating, Morningglory
[29] = post-emergence, Postemergence, read-out: Plant response rating (0 to 100), Galium
[30] = pre-emergence, Preemergence, read-out: Plant response rating, Galium
[31] = post-emergence, Postemergence, read-out: Plant response rating (0 to 100), Soybean
[32] = pre-emergence, Preemergence, read-out: Plant response rating, Soybean

COCC(=O)n1cc(C(=O)c2ccccc2)c(-c2cc(Cl)cc(Cl)c2)n1 [Compound 16, 1-[4-benzoyl-3-(3,5-dichlorophenyl)-1H-pyrazol-1-yl]-2-methoxyethanone]
plant injury at 62 g/ha (corn (Zea mays); post-emergence, Postemergence, 62 g ai/ha): 0% | plant injury at 125 g/ha (corn (Zea mays); post-emergence, Postemergence, 125 g ai/ha): 0% | Corn plant response rating (crop injury, 0 = no effect, 100 = complete kill) at 250 g/ha (corn (Zea mays); [11]): 0% | Corn plant response rating (crop injury, 0 = no effect, 100 = complete kill) at 500 g/ha (corn (Zea mays); [11]): 0% | Corn plant response rating (crop injury, 0 = no effect, 100 = complete kill) at 62 g/ha (corn (Zea mays); pre-emergence, Preemergence, 62 g ai/ha): 0% | Corn plant response rating (crop injury, 0 = no effect, 100 = complete kill) at 125 g/ha (corn (Zea mays); pre-emergence, Preemergence, 125 g ai/ha): 0% | Corn plant response rating (crop injury, 0 = no effect, 100 = complete kill) at 250 g/ha (corn (Zea mays); pre-emergence, Preemergence): 0% | Corn plant response rating (crop injury, 0 = no effect, 100 = complete kill) at 500 g/ha (corn (Zea mays); pre-emergence, Preemergence): 0% | pest or weed control at 62 g/ha ([1]; post-emergence, Postemergence, read-out: Plant response rating (0 to 100), Blackgrass): 0% | pest or weed control at 125 g/ha ([1]; post-emergence, Postemergence, scale 0 to 100, read-out: Plant response rating, Blackgrass): 0% | pest or weed control at 250 g/ha [1, 11]: 0% | pest or weed control at 500 g/ha [1, 11]: 0% | pest or weed control at 62 g/ha [1, 12]: 0% | pest or weed control at 125 g/ha [1, 12]: 0% | pest or weed control at 250 g/ha ([1]; pre-emergence, Preemergence): 0% | pest or weed control at 500 g/ha ([1]; pre-emergence, Preemergence): 0% | pest or weed control at 62 g/ha [2, 13]: 85% | pest or weed control at 125 g/ha [2, 13]: 90% | pest or weed control at 250 g/ha [2, 11]: 90% | pest or weed control at 500 g/ha [2, 11]: 90% | pest or weed control at 62 g/ha [2, 14]: 65% | pest or weed control at 125 g/ha [2, 14]: 100% | pest or weed control at 250 g/ha ([2]; pre-emergence, Preemergence): 100% | pest or weed control at 500 g/ha ([2]; pre-emergence, Preemergence): 100% | pest or weed control at 62 g/ha [3, 15]: 0% | pest or weed control at 125 g/ha [3, 15]: 0% | pest or weed control at 250 g/ha [3, 11]: 0% | pest or weed control at 500 g/ha [3, 11]: 0% | pest or weed control at 62 g/ha [3, 16]: 0% | pest or weed control at 125 g/ha [3, 16]: 0% | pest or weed control at 250 g/ha ([3]; pre-emergence, Preemergence): 0% | pest or weed control at 500 g/ha ([3]; pre-emergence, Preemergence): 0% | pest or weed control at 62 g/ha [4, 17]: 0% | pest or weed control at 125 g/ha [4, 17]: 0% | pest or weed control at 250 g/ha [4, 11]: 0% | pest or weed control at 500 g/ha [4, 11]: 5% | pest or weed control at 62 g/ha [4, 18]: 0% | pest or weed control at 125 g/ha [4, 18]: 0% | pest or weed control at 250 g/ha ([4]; pre-emergence, Preemergence): 0% | pest or weed control at 500 g/ha ([4]; pre-emergence, Preemergence): 0% | pest or weed control at 62 g/ha [5, 19]: 0% | pest or weed control at 125 g/ha [5, 19]: 0% | pest or weed control at 250 g/ha [5, 11]: 0% | pest or weed control at 500 g/ha [5, 11]: 0% | pest or weed control at 62 g/ha [5, 20]: 0% | pest or weed control at 125 g/ha [5, 20]: 0% | pest or weed control at 250 g/ha ([5]; pre-emergence, Preemergence): 0% | pest or weed control at 500 g/ha ([5]; pre-emergence, Preemergence): 0% | pest or weed control at 62 g/ha [6, 21]: 60% | pest or weed control at 125 g/ha [6, 21]: 85% | pest or weed control at 250 g/ha [6, 11]: 85% | pest or weed control at 500 g/ha [6, 11]: 95% | pest or weed control at 62 g/ha [6, 22]: 55% | pest or weed control at 125 g/ha [6, 22]: 85% | pest or weed control at 250 g/ha ([6]; pre-emergence, Preemergence): 85% | pest or weed control at 500 g/ha ([6]; pre-emergence, Preemergence): 95% | pest or weed control at 62 g/ha [7, 23]: 70% | pest or weed control at 125 g/ha [7, 23]: 75% | pest or weed control at 250 g/ha [7, 11]: 75% | pest or weed control at 500 g/ha [7, 11]: 75% | pest or weed control at 62 g/ha [7, 24]: 100% | pest or weed control at 125 g/ha [7, 24]: 100% | pest or weed control at 250 g/ha ([7]; pre-emergence, Preemergence): 100% | pest or weed control at 500 g/ha ([7]; pre-emergence, Preemergence): 100% | pest or weed control at 62 g/ha [8, 25]: 85% | pest or weed control at 125 g/ha [8, 25]: 85% | pest or weed control at 250 g/ha [8, 11]: 100% | pest or weed control at 500 g/ha [8, 11]: 100% | pest or weed control at 62 g/ha [8, 26]: 85% | pest or weed control at 125 g/ha [8, 26]: 85% | pest or weed control at 250 g/ha ([8]; pre-emergence, Preemergence): 100% | pest or weed control at 500 g/ha ([8]; pre-emergence, Preemergence): 100% | pest or weed control at 62 g/ha [9, 27]: 0% | pest or weed control at 125 g/ha [9, 27]: 0% | pest or weed control at 250 g/ha [9, 11]: 0% | pest or weed control at 500 g/ha [9, 11]: 0% | pest or weed control at 62 g/ha [9, 28]: 0% | pest or weed control at 125 g/ha [9, 28]: 0% | pest or weed control at 250 g/ha ([9]; pre-emergence, Preemergence): 0% | pest or weed control at 500 g/ha ([9]; pre-emergence, Preemergence): 0% | pest or weed control at 62 g/ha [10, 29]: 0% | pest or weed control at 125 g/ha [10, 29]: 20% | pest or weed control at 250 g/ha [10, 11]: 20% | pest or weed control at 500 g/ha [10, 11]: 50% | pest or weed control at 62 g/ha [10, 30]: 0% | pest or weed control at 125 g/ha [10, 30]: 0% | pest or weed control at 250 g/ha ([10]; pre-emergence, Preemergence): 0% | pest or weed control at 500 g/ha ([10]; pre-emergence, Preemergence): 0% | plant injury at 62 g/ha (soybean (Glycine max); [31]): 0% | plant injury at 125 g/ha (soybean (Glycine max); [31]): 0% | plant injury at 250 g/ha (soybean (Glycine max); [11]): 0% | plant injury at 500 g/ha (soybean (Glycine max); [11]): 0% | plant injury at 62 g/ha (soybean (Glycine max); [32]): 0% | plant injury at 125 g/ha (soybean (Glycine max); [32]): 0% | plant injury at 250 g/ha (soybean (Glycine max); pre-emergence, Preemergence): 0% | plant injury at 500 g/ha (soybean (Glycine max); pre-emergence, Preemergence): 0%
